Test results taken from patent US20230390278A1, “SYNERGISTIC COMBINATIONS OF VALPROOIC ACID AND QUINACRINE” (VESTLANDETS INNOVASJONSSELSKAP AS, priority 2020, published 2023).
Where two headings read alike, the source gives them in different places. One block for each molecule: values may come before it.

Assays:
[1] = Plasma levels of QC and VPA in blood of off-label treated AML patients, measured by LC/MS; assay type: in vivo, human; details: for concentration at 3 h: 3 h after intake; for concentration at 25 day: Patient 1, day 25, QC 200 mg/day, VPA 600 + 1200 mg/day; for concentration at 64 day: Patient 1, day 64, QC 300 mg/day; for concentration at 163 day: Patient 1, day 163, QC 400 mg/day; for concentration at 65 day: Patient 2, day 65, QC 200 mg/day
Source text: The plasma concentration may be the blood plasma concentration or bone marrow plasma concentration. […] Plasma concentrations may be determined by liquid chromatography-mass spectrometry (LC-MS).

[2] = Plasma levels of QC and VPA in bone marrow (BM) of off-label treated AML patients, measured by LC/MS; assay type: in vivo, human
[3] = human, oral, Plasma VPA, VPA 300 + 600 mg/day
[4] = human, oral, VPA 300 + 600 mg/day, read-out: Plasma QC

Plasma VPA ([1]; Patient 1, day 128, QC 400 mg/day, VPA 600 + 900 mg/day, neg: negative): neg | concentration at 3 h ([1]; human, oral, Plasma VPA, Patient 1, day 1, QC 100 mg/day, VPA 300 + 300 mg/day): 17100 nM | concentration at 25 day ([1]; human, oral, Plasma VPA): 43000 nM | concentration at 64 day ([1]; human, oral, Plasma VPA, VPA 600 + 900 mg/day): 25600 nM | concentration at 163 day [1, 3]: 119000 nM | concentration at 3 h ([1]; human, oral, Plasma VPA, Patient 2, day 1, QC 100 mg/day, VPA 300 + 600 mg/day): 156000 nM | concentration at 15 day ([1]; human, oral, Plasma VPA, Patient 2, day 15, QC 200 mg/day, VPA 600 + 600 mg/day): 442000 nM | concentration at 65 day [1, 3]: 341000 nM | concentration at 3 h ([1]; human, oral, Plasma VPA, Patient 3, day 1, QC 100 mg/day, VPA 300 + 300 mg/day): 120000 nM | concentration at 15 day ([1]; human, oral, Plasma VPA, Patient 3, day 15, QC 300 mg/day, VPA 300 + 600 mg/day): 41300 nM
SMILES: CCCC(CCC)C(=O)O [VPA, 2-propylvaleric acid]

Plasma QC, BM ([2]; Patient 1, day 163, QC 400 mg/day, VPA 300 + 600 mg/day): BM: 44 nM | Plasma QC, BM ([2]; Patient 2, day 15, QC 200 mg/day, VPA 600 + 600 mg/day): BM: 32 nM | Plasma QC, BM ([2]; Patient 2, day 65, QC 200 mg/day, VPA 300 + 600 mg/day): BM: 332 nM | concentration at 3 h ([1]; human, oral, Patient 1, day 1, QC 100 mg/day, VPA 300 + 300 mg/day, read-out: Plasma QC): 4 nM | concentration at 25 day ([1]; human, oral, read-out: Plasma QC): 52 nM | concentration at 64 day ([1]; human, oral, VPA 600 + 900 mg/day, read-out: Plasma QC): 138 nM | concentration at 128 day ([1]; human, oral, Patient 1, day 128, QC 400 mg/day, VPA 600 + 900 mg/day): 38 nM | concentration at 163 day [1, 4]: 38 nM | concentration at 3 h ([1]; human, oral, Patient 2, day 1, QC 100 mg/day, VPA 300 + 600 mg/day, read-out: Plasma QC): 8 nM | concentration at 15 day ([1]; human, oral, Patient 2, day 15, QC 200 mg/day, VPA 600 + 600 mg/day, read-out: Plasma QC): 18 nM | concentration at 65 day [1, 4]: 130 nM | concentration at 3 h ([1]; human, oral, Patient 3, day 1, QC 100 mg/day, VPA 300 + 300 mg/day, read-out: Plasma QC): 8 nM | concentration at 15 day ([1]; human, oral, Patient 3, day 15, QC 300 mg/day, VPA 300 + 600 mg/day, read-out: Plasma QC): 300 nM
SMILES: CCN(CC)CCCC(C)Nc1c2ccc(Cl)cc2nc2ccc(OC)cc12 (racemic) [QC, (RS)-N′-(6-chloro-2-methoxy-acridin-9-yl)-N, N-diethyl-pentane-1,4-diamine]
